# Test results published in patent US6814319B2, “Laboratory scale milling process” (Pharmacia & Upjohn Company, priority 2000, dated 2004).
# Experiments:
# Format in all cases: physicochemical
# [1] = D50 particle size of milled drug, X-ray diffraction; settings: size detection by X-ray diffraction; after magnetic stir-bar milling, parameters of Table 2
# Text: (§1) Valdecoxib, linezolid, phenytoin, griseofulvin and carbamazepine were milled according to the general procedure described for celecoxib in Example 1.
# [2] = D50 particle size of milled drug, turbidimetry; settings: size detection by turbidimetry; after magnetic stir-bar milling, parameters of Table 2
# Text: as §1
# [3] = D50 particle size of milled drug, optical microscopy; settings: size detection by optical microscopy; after magnetic stir-bar milling, parameters of Table 2
# Text: as §1
Compound,D50 (nm) [1],D50 (nm) [2],D50 (nm) [3]
NC(=O)N1c2ccccc2C=Cc2ccccc21 [Carbamazepine],2600^3 nm,2500^1 nm,
COC1=CC(=O)C[C@@H](C)[C@]12Oc1c(Cl)c(OC)cc(OC)c1C2=O [Griseofulvin],160^3 nm,250^1 nm,
CC(=O)NC[C@H]1CN(c2ccc(N3CCOCC3)c(F)c2)C(=O)O1 [Linezolid],,1900^1 nm,1000^2 nm
O=C1NC(=O)C(c2ccccc2)(c2ccccc2)N1 [Phenytoin],130^3 nm,200^1 nm,
Cc1onc(-c2ccccc2)c1-c1ccc(S(N)(=O)=O)cc1 [Valdecoxib],,460^1 nm,
